Source: article PMC3076090 (Pharmaceutical research, 2010)
Read-outs that look alike come from different tables or passages of the source.

Experiments:
[1] = system: blood-brain barrier; test: in situ rat brain perfusion, pH-dependent; settings: for Kin: 30-s perfusion; for PcS (pH-CRE): new pH-CRE method; for log(Kin/S) (= log Pe): S = 100 cm^2·g^−1; for PcS (CRE): traditional Crone-Renkin equation; for Fpf (cerebrovascular flow velocity refined from the compound's Kin-pH data): weighted nonlinear regression, Eq. 4
[2] = measured octanol-water partition coefficients from multiple sources; cited from earlier work
[3] = system: blood-brain barrier; settings: pH 7.4; S = 100 cm^2·g^−1; rat; cited from earlier work
[4] = intrinsic PAMPA permeability, 10% porcine brain extract lipids in alkane; cited from earlier work
[5] = pKa determination at 37°C; assay type: physicochemical
[6] = system: blood-brain barrier; settings: typical values; cited from earlier work
[7] = system: blood-brain barrier; settings: mouse in situ brain perfusion; cited from earlier work
[8] = system: blood-brain barrier; settings: male, Sprague-Dawley, rat, 30 s

CNCC[C@@H](Oc1ccccc1C)c1ccccc1 [Atomoxetine]
Kin ([1]; dosing group B-3, pH 8.0, 10 mM bicine in KRB): 0.026 ± 0.010 mL/g/s | Kin ([1]; dosing group B-4, pH 8.5, 10 mM bicine in KRB, no CsA): 0.032 ± 0.015 mL/g/s | PcS (pH-CRE) ([1]; pH 7.4): 805 | log(Kin/S) (= log Pe) ([1]; pH 8.0, this work): −3.59 ± 0.16 cm·s^−1 | PcS (pH-CRE) ([1]; pH 8.0): 3134 | PcS (CRE) ([1]; pH 8.0): 549 | log(Kin/S) (= log Pe) ([1]; pH 8.5, this work): −3.50 ± 0.20 cm·s^−1 | PcS (pH-CRE) ([1]; pH 8.5): 9295 | Fpf (cerebrovascular flow velocity refined from the compound's Kin-pH data) [1]: 0.031 ± 0.002 mL.g^−1.s^−1 | log POCT [2]: 3.3 | log(Kin/S) (= log Pe) [3]: −3.49 ± 0.12 cm·s^−1 | log Po^PAMPA−BBB [4]: −1.8 | pKa [5]: 9.5 ± 0.05

inulin
in vivo Pc (paracellular) [6]: ~0.04 10^−6 cm·s^−1

CN(C)CCC=C1c2ccccc2CCc2ccccc21 [Amitriptyline]
Kin ([1]; dosing group B-1, pH 8.0, 10 mM bicine in KRB): 0.044 ± 0.013 mL/g/s | Kin ([1]; dosing group B-2, pH 8.5, 10 mM bicine in KRB): 0.045 ± 0.014 mL/g/s | PcS (pH-CRE) ([1]; pH 7.4): 2997 | log(Kin/S) (= log Pe) ([1]; pH 8.0, this work): −3.35 ± 0.13 cm·s^−1 | PcS (pH-CRE) ([1]; pH 8.0): 10,974 | PcS (CRE) ([1]; pH 8.0): 549 | log(Kin/S) (= log Pe) ([1]; pH 8.5, this work): −3.35 ± 0.13 cm·s^−1 | PcS (pH-CRE) ([1]; pH 8.5): 28,173 | Fpf (cerebrovascular flow velocity refined from the compound's Kin-pH data) [1]: 0.051 ± 0.003 mL.g^−1.s^−1 | log POCT [2]: 4.6 | log(Kin/S) (= log Pe) [3]: −3.27 ± 0.06 cm·s^−1 | log Po^PAMPA−BBB [4]: −1.2 | Pgp effect ratio Kin^knockout/Kin^wildtype [7]: 1.0 | pKa [5]: 8.92 ± 0.1

COc1ccc2c(c1)c(CC(=O)O)c(C)n2C(=O)c1ccc(Cl)cc1 [Indomethacin]
Kin ([1]; dosing group A-1, pH 5.5, 10 mM MES in KRB): 0.032 ± 0.008 mL/g/s | Kin ([1]; dosing group A-2, pH 6.5, 10 mM MES in KRB): 0.004 ± 0.001 mL/g/s | Kin ([1]; dosing group A-2, pH 6.5, 10 mM MES in KRB, listed as indomethacin): 0.0042 ± 0.0008 mL/g/s | log(Kin/S) (= log Pe) ([1]; pH 5.5, this work): −3.50 ± 0.10 cm·s^−1 | PcS (pH-CRE) ([1]; pH 5.5): 399 | PcS (CRE) ([1]; pH 5.5): 400 | log(Kin/S) (= log Pe) ([1]; pH 6.5, this work (sertraline with 5 µM CsA)): −4.39 ± 0.08 cm·s^−1 | PcS (pH-CRE) ([1]; pH 6.5): 42 | PcS (CRE) ([1]; pH 6.5): 42 | Fpf (cerebrovascular flow velocity refined from the compound's Kin-pH data) [1]: 0.081 mL.g^−1.s^−1 | log POCT [2]: 3.5 | log Po^PAMPA−BBB [4]: −2.7

CN(C)CCCN1c2ccccc2CCc2ccccc21 [Imipramine]
Kin ([1]; dosing group B-5, pH 7.4, KRB): 0.031 ± 0.021 mL/g/s | Kin ([1]; dosing group B-6, pH 8.5, 10 mM bicine in KRB): 0.032 ± 0.002 mL/g/s | PcS (pH-CRE) ([1]; pH 7.4): 1416 | PcS (CRE) ([1]; pH 7.4): 1437 | PcS (pH-CRE) ([1]; pH 8.5): 15,260 | PcS (CRE) ([1]; pH 8.5): 2150 | Fpf (cerebrovascular flow velocity refined from the compound's Kin-pH data) [1]: 0.032 mL.g^−1.s^−1 | pKa [5]: 9.23 ± 0.06

OC[C@H]1O[C@@](CO)(O[C@H]2O[C@H](CO)[C@@H](O)[C@H](O)[C@H]2O)[C@@H](O)[C@@H]1O [sucrose]
in vivo Pc (paracellular) [6]: about 0.15 10^−6 cm·s^−1

CNCCCC12CCC(c3ccccc31)c1ccccc12 [Maprotiline]
Kin ([1]; dosing group B-7, pH 8.0, 10 mM bicine in KRB): 0.052 ± 0.011 mL/g/s | Kin ([1]; dosing group B-8, pH 8.5, 10 mM bicine in KRB): 0.036 ± 0.013 mL/g/s | log(Kin/S) (= log Pe) ([1]; pH 7.4, this work): −3.48 ± 0.11 cm·s^−1 | PcS (pH-CRE) ([1]; pH 7.4): 591 | PcS (CRE) ([1]; pH 7.4): 580 | log(Kin/S) (= log Pe) ([1]; pH 8.0, this work): −3.29 ± 0.09 cm·s^−1 | PcS (pH-CRE) ([1]; pH 8.0): 2335 | log(Kin/S) (= log Pe) ([1]; pH 8.5, this work): −3.44 ± 0.15 cm·s^−1 | PcS (pH-CRE) ([1]; pH 8.5): 7234 | PcS (CRE) ([1]; pH 8.5): 691 | Fpf (cerebrovascular flow velocity refined from the compound's Kin-pH data) [1]: 0.047 ± 0.006 mL.g^−1.s^−1 | log POCT [2]: 5.1 | log Po^PAMPA−BBB [4]: −0.6 | pKa [5]: 10.01 ± 0.01

Cc1cc(=O)n(-c2ccccc2)n1C [Antipyrine]
log POCT [2]: 0.6 | Kin (range over dosing groups) ([8]; in vivo, pH 5.5): 0.0042 to 0.0082 mL/g/s | PcS (CRE) ([8]; in vivo, pH 5.5): 63 | PcS (pH-CRE) ([8]; in vivo, pH 5.5): 77 | PcS (CRE) ([8]; in vivo, pH 6.5): 54 | PcS (pH-CRE) ([8]; in vivo, pH 6.5): 77 | Kin ([8]; in vivo, pH 7.4): 82 ± 23 10^−4 mL.g^−1.s^−1 | PcS (CRE) ([8]; in vivo, pH 7.4): 92 | PcS (pH-CRE) ([8]; in vivo, pH 7.4): 77 | PcS (CRE) ([8]; in vivo, pH 8): 80 | PcS (pH-CRE) ([8]; in vivo, pH 8): 77 | PcS (CRE) ([8]; in vivo, pH 8.5): 70 | PcS (pH-CRE) ([8]; in vivo, pH 8.5): 77 | log Po (intrinsic, neutral molecule, luminal permeability) ([8]; po): −4.13 ± 0.02 cm.s^−1 | log Po^PAMPA−BBB [4]: −5.3

CN[C@H]1CC[C@@H](c2ccc(Cl)c(Cl)c2)c2ccccc21 [Sertraline]
log POCT [2]: 4.9
